According to patent publication US9759709B1, “Devices and methods to monitor HIV-infection in presence of substance of abuse and/or therapeutic agent” (THE FLORIDA INTERNATIONAL UNIVERSITY BOARD OF TRUSTEES, priority 2016, dated 2017):
Where a name gives a salt, the structure may show the parent alone.

Tests used:
Assay type in all cases: cell-based
human astrocytes (HA) [1] = experiment: EIS measurement of charge transfer resistance (Rct) of HA grown on IDE-Au cultureware chip
Method: A cultureware chip (CC) comprising eight wells was procured from Applied Biophysics (#8WCP PET arrays) and used to grow HA for HIV infection and subsequent drug treatments. Each well (substrate area of 0.8 cm^2 and maximum volume of 600 μL) of the CC comprised a sensing substrate configured to have gold-based IDE (IDE-Au; surface area: 3.985 mm^2). In each well and on the sensing substrate, the IDE-Au array was useful to grow a large number of cells (e.g., approximately between 4000 and 8000) and designed in such a way to perform electrochemical measurements without fluctuation.
EIS was conducted in 400 μL of 5 mM PBS (pH 7.4) comprising 5 mM Fe (II)/Fe(III) as redox moieties using VMP3, a multi-channel potentiostat/galvanostats obtained from BioLogic Instruments. Each EIS measurement was made in sets of triplet and an average was used for analytical interpretation. Before processing the CC for cell culture, EIS measurement was made on […] each well. […] The cyclic voltammetry (CV) studies were also performed on CC using identical experimental conditions to validate results obtained using EIS.
A portion of the Nyquist plot of cells grown on IDE-Au takes on a semicircle shape at higher frequency that corresponds to the electron-transfer limited process. The […] of this semicircle represents the charge transfer resistance, Rct, of the system. The semicircle is followed by a linear portion of the curve (45° to the axes) corresponding to the diffusion-controlled electron transfer process (Kaushik et al. 2010).
For a biological system, the Rct value […] intra/extracellular cell properties, such as the electrical and physical properties of the HA. As a result, Rct was selected as the parameter for the assessment of HIV infection in HA and on treatments with Coc and drugs specific to both HIV and Coc. The EIS was performed on HA as a function of HIV infection doses which varies from 10 ng/mL to 30 ng/mL (FIG. 2A (b)).
(§1) Primary HA were grown in the eight-well CC plate at a concentration of approximately 8,000 cells and infected with different concentrations (ranging from 10 ng/mL to 30 ng/mL) of HIV-1 using a previously described protocol (Atluri et al. 2013; Eugenin and Berman 2007). Each well was used for a separate treatment.
After overnight infection, unabsorbed virus was washed away using PBS (pH 7.4), and the infected cells were cultured for 5 days in the presence or absence of Coc (1 μM). RA (2 μM) was added to the designated wells (specific to Coc) 2 h before each treatment involving Coc. The optimized dose of Coc selected for this study was 1 μM, which was based on our dose response study for cytotoxicity and HIV infectivity (Roy et al. 2015).
On the 5th day, 100 μg (100 μL of 1 mg/mL) of Tef was added to wells specific to HIV and incubated for 7 days in total. The dose of Tef was selected on the basis of its toxicity and efficacy as reported in our previous publication (Jayant et al. 2015).
To evaluate variations in HIV infection as a function of the Rct value (FIGS. 3A-3D) measured using EIS, an experiment was planned in 9 wells as described in FIGS. 3A-3D.

HIV-1Ba-L (clade B) = experiment: p24 antigen estimation by ELISA (level of HIV infection in HA)
Source text: Primary HA were purchased from ScienCell Research Laboratories (Carlsbad, Calif.; Cat. #1800-5) and grown in astrocyte medium purchased from ScienCell Laboratories (Cat. #1801) comprising 2% of fetal bovine serum (ScienCell Cat. #0010), astrocyte growth supplement (ScienCell Cat. #1852), and penicillin/streptomycin (ScienCell Cat. #0503). HIV-1Ba-L (clade B) (NIH AIDS Reagent Program Cat. #510) was obtained through AIDS Research and Reference Reagent Program, Division of AIDS, NIAID, NIH. The Cocaine hydrochloride-Sigma (Cat# C5776), rimcazole dihydrochloride-Tocris (1497, CAS#75859-03-9), and tenofovir disoproxil fumarate-Sigma (1643656; CAS #202138-50-9) were also obtained for this research.
as §1, with “treatment. […]” for “treatment.”
450 μl of undiluted HA culture supernatant was mixed with 50 μL of lysing buffer. […] After incubation, 100 μL of stop solution was added to each well and the optical density of each well was read at 450 nm using a microplate reader (Yndart et al. 2015). […]

human astrocytes (HA) [2] = experiment: MTT cell viability assay; conditions: HA treated with Coc (1 μM), 7 days
Method: The MTT cell viability assay was examined using a modified assay method as described by Rao et al (Kurapati et al. 2012). After 7 days of HIV-infection and/or treatment with an optimum concentration of Coc (1 μM), 6-well plates were given media change with 1 mL of medium. Then, 100 μL of MTT (100 mg MTT/20 ml PBS) was added to each well and the wells were incubated for 3 h at 37° C. Further, one volume of stop mix solution was added to each well. The plates were then rocked for about 2 h and centrifuged.
The optical density of the solubilized formazan was determined spectrophotometrically measuring the absorbance at 550 nm after transferring into the 96-well plate. The optical density of formazan in each well is directly proportional to the cell viability and utilized for calculations.
Considering cell viability as a major factor, HA toxicity was evaluated in terms of cell viability as a function of levels of HIV infection ranging from 10 ng/mL to 30 ng/mL using MTT assay.

C[C@@H]1CN(CCCn2c3ccccc3c3ccccc32)C[C@H](C)N1 [RA, rimcazole dihydrochloride]
Rct (human astrocytes (HA) [1]; HA+Coc+RA (2 μM)): 34 KΩ
Rct (human astrocytes (HA) [1]; HA+HIV+Coc+RA): 105 KΩ
level of HIV infection (p24 antigen) (HIV-1Ba-L (clade B); HIV-infected HA with Coc and RA (2 μM) vs cells treated with HIV and Coc alone): not statistically significant

CC(C)OC(=O)OCOP(=O)(CO[C@H](C)Cn1cnc2c(N)ncnc21)OCOC(=O)OC(C)C.O=C(O)/C=C/C(=O)O [Tef, tenofovir disoproxil fumarate]
Rct (human astrocytes (HA) [1]; HA+HIV+Coc+Tef): 93 KS
Rct (human astrocytes (HA) [1]; HIV-infected HA (20 ng/mL) after Tef, HA+HIV without drug 210): 150 KΩ
level of HIV infection (p24 antigen) (HIV-1Ba-L (clade B); HIV-infected HA treated with Tef (100 μg) vs HIV-infected cells alone): significant reduction

COC(=O)[C@H]1[C@@H](OC(=O)c2ccccc2)C[C@@H]2CC[C@H]1N2C [Coc, cocaine]
cell viability (human astrocytes (HA) [2]): ~85%
Rct (human astrocytes (HA) [1]; HA+Coc (1 μM), normal HA 48): 21 KS
Rct (human astrocytes (HA) [1]; HA+HIV+Coc): 140 KS
